Experimental data reported in ChEMBL document CHEMBL1201861, “Genomics of Drug Sensitity in Cancer screening data, Wellcome Trust Sanger Institute”.

Columns and labels:
Assay in all cases: cells
Settings in all cases: Homo sapiens
[1] = system: BB30-HNC; type: functional, cell-based;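 further: growth inhibition of the cultured cell line, read out by a cell viability assay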
Description: SANGER: Inhibition of human BB30-HNC cell growth in a cell viability assay.

[2] = system: GB-1; type: functional, cell-based;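 further: growth of GB-1 cells judged by a viability assay, IC50 marks the concentration inhibiting growth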
Description: SANGER: Inhibition of human GB-1 cell growth in a cell viability assay.

[3] = system: NCI-H1770; type: functional, cell-based;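 further: growth inhibition of NCI-H1770 cells determined with a viability readout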
Description: SANGER: Inhibition of human NCI-H1770 cell growth in a cell viability assay.

[4] = system: IST-MES1; type: functional, cell-based;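 further: growth inhibition of IST-MES1 cells, measured with a cell viability assay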
Description: SANGER: Inhibition of human IST-MES1 cell growth in a cell viability assay.

[5] = system: MC116; type: functional, cell-based;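 further: growth inhibition of MC116 cells, read out with a cell viability assay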
Description: SANGER: Inhibition of human MC116 cell growth in a cell viability assay.

[6] = system: Ramos-2G6-4C10; type: functional, cell-based;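 further: growth inhibition of the cell line, measured by a cell viability read-out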
Description: SANGER: Inhibition of human Ramos-2G6-4C10 cell growth in a cell viability assay.

[7] = system: MV4-11; type: functional, cell-based, MV-4-11;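 further: cell viability readout measuring growth inhibition of human MV-4-11 cells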
Description: SANGER: Inhibition of human MV-4-11 cell growth in a cell viability assay.

[8] = system: ES6; type: functional, cell-based;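 further: growth inhibition of human ES6 cells, read out with a cell viability assay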
Description: SANGER: Inhibition of human ES6 cell growth in a cell viability assay.

[9] = system: NCI-H510A; type: functional, cell-based;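 further: growth inhibition of NCI-H510A cells, read out with a cell viability assay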
Description: SANGER: Inhibition of human NCI-H510A cell growth in a cell viability assay.

[10] = system: HT; type: functional, cell-based
Description: SANGER: Inhibition of human HT cell growth in a cell viability assay.

[11] = system: CTB-1; type: functional, cell-based
Description: SANGER: Inhibition of human CTB-1 cell growth in a cell viability assay.

[12] = system: DMS-114; type: functional, cell-based
[13] = system: ATN-1; type: functional, cell-based;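 further: growth inhibition of human ATN-1 cells, read out with a cell viability assay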
Description: SANGER: Inhibition of human ATN-1 cell growth in a cell viability assay.

[14] = system: ONS-76; type: functional, cell-based;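 further: growth inhibition of human ONS-76 cells, read out with a cell viability assay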
Description: SANGER: Inhibition of human ONS-76 cell growth in a cell viability assay.

[15] = system: LB771-HNC; type: functional, cell-based;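 further: growth inhibition of LB771-HNC human cells, read out with a cell viability assay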
Description: SANGER: Inhibition of human LB771-HNC cell growth in a cell viability assay.

[16] = system: NCI-H1299; type: functional, cell-based;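 further: growth inhibition of human NCI-H1299 cells, read out by a cell viability assay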
Description: SANGER: Inhibition of human NCI-H1299 cell growth in a cell viability assay.

[17] = system: SW982; type: functional, cell-based;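 further: growth inhibition of SW982 cells, read out with a cell viability assay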
Description: SANGER: Inhibition of human SW982 cell growth in a cell viability assay.

[18] = system: NCI-H446; type: functional, cell-based;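 further: growth inhibition of NCI-H446 cells determined by a cell viability assay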
Description: SANGER: Inhibition of human NCI-H446 cell growth in a cell viability assay.

[19] = system: MLMA; type: functional, cell-based;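 further: growth inhibition of MLMA cells (human), determined through a cell viability readout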
Description: SANGER: Inhibition of human MLMA cell growth in a cell viability assay.

[20] = system: RPMI-8226; type: functional, cell-based
Description: SANGER: Inhibition of human RPMI-8226 cell growth in a cell viability assay.

[21] = system: Becker; type: functional, cell-based;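 further: growth inhibition of Becker cells, read out with a cell viability assay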
Description: SANGER: Inhibition of human Becker cell growth in a cell viability assay.

[22] = system: LU-139; type: functional, cell-based
Description: SANGER: Inhibition of human LU-139 cell growth in a cell viability assay.

[23] = system: ES7; type: functional, cell-based;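 further: growth inhibition of cultured human ES7 cells, read out as cell viability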
Description: SANGER: Inhibition of human ES7 cell growth in a cell viability assay.

[24] = system: SW 954; type: functional, cell-based;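 further: growth inhibition of SW954 human cancer cells, read out as cell viability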
Description: SANGER: Inhibition of human SW954 cell growth in a cell viability assay.

[25] = system: D-502MG; type: functional, cell-based
Description: SANGER: Inhibition of human D-502MG cell growth in a cell viability assay.

[26] = system: KU812 cell line; type: functional, cell-based;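 further: growth inhibition of KU812 cells, read out with a cell viability assay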
Description: SANGER: Inhibition of human KU812 cell growth in a cell viability assay.

[27] = system: OMC-1; type: functional, cell-based;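 further: growth inhibition of the OMC-1 cell line, measured by a cell viability assay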
Description: SANGER: Inhibition of human OMC-1 cell growth in a cell viability assay.

[28] = system: BB65-RCC; type: functional, cell-based;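 further: growth inhibition of the cell line, measured with a cell viability assay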
Description: SANGER: Inhibition of human BB65-RCC cell growth in a cell viability assay.

[29] = system: ES1; type: functional, cell-based;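 further: growth inhibition of ES1 cells, read out with a cell viability assay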
Description: SANGER: Inhibition of human ES1 cell growth in a cell viability assay.

[30] = system: JVM-3; type: functional, cell-based;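 further: growth inhibition of human JVM-3 cells, read out with a cell viability assay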
Description: SANGER: Inhibition of human JVM-3 cell growth in a cell viability assay.

[31] = system: GI-1; type: functional, cell-based;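 further: growth inhibition of human GI-1 cells, measured with a cell viability readout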
Description: SANGER: Inhibition of human GI-1 cell growth in a cell viability assay.

[32] = system: CW-2; type: functional, cell-based;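 further: growth inhibition of CW-2 cells, read out by a cell viability assay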
Description: SANGER: Inhibition of human CW-2 cell growth in a cell viability assay.

[33] = system: D283 Med; type: functional, cell-based
Description: SANGER: Inhibition of human D-283MED cell growth in a cell viability assay.

[34] = system: MOLT-4; type: functional, cell-based;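 further: growth inhibition of MOLT-4 cells, determined with a cell viability readout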
Description: SANGER: Inhibition of human MOLT-4 cell growth in a cell viability assay.

[35] = system: EC-GI-10; type: functional, cell-based
Description: SANGER: Inhibition of human EC-GI-10 cell growth in a cell viability assay.

[36] = system: KG-1; type: functional, cell-based;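 further: growth inhibition of KG-1 cells, read out by a cell viability assay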
Description: SANGER: Inhibition of human KG-1 cell growth in a cell viability assay.

[37] = system: J-RT3-T3-5; type: functional, cell-based;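 further: cell viability assay measuring growth inhibition of human J-RT3-T3-5 cells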
Description: SANGER: Inhibition of human J-RT3-T3-5 cell growth in a cell viability assay.

[38] = system: ALL-PO; type: functional, cell-based;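 further: growth inhibition of ALL-PO cells, read out by a cell viability assay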
Description: SANGER: Inhibition of human ALL-PO cell growth in a cell viability assay.

[39] = system: HDLM-2; type: functional, cell-based;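 further: cell viability assay measuring suppression of HDLM-2 proliferation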
Description: SANGER: Inhibition of human HDLM-2 cell growth in a cell viability assay.

[40] = system: SNB-75; type: functional, cell-based;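 further: cell viability assay measuring growth inhibition of human SNB-75 cells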
Description: SANGER: Inhibition of human SNB75 cell growth in a cell viability assay.

[41] = system: DMS-79; type: functional, cell-based;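 further: growth inhibition measured with a cell viability assay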
Description: SANGER: Inhibition of human DMS-79 cell growth in a cell viability assay.

[42] = system: 697; type: functional, cell-based
Description: SANGER: Inhibition of human 697 cell growth in a cell viability assay.

[43] = system: MHH-PREB-1; type: functional, cell-based;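 further: cell viability assay measuring inhibition of proliferation of human MHH-PREB-1 cells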
Description: SANGER: Inhibition of human MHH-PREB-1 cell growth in a cell viability assay.

[44] = system: OCI-AML2; type: functional, cell-based;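 further: growth inhibition of OCI-AML2 cells, read out with a cell viability assay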
Description: SANGER: Inhibition of human OCI-AML2 cell growth in a cell viability assay.

[45] = system: MSTO-211H; type: functional, cell-based
Description: SANGER: Inhibition of human MSTO-211H cell growth in a cell viability assay.

[46] = system: TGBC24TKB; type: functional, cell-based;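 further: growth inhibition of human TGBC24TKB cells, read out with a cell viability assay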
Description: SANGER: Inhibition of human TGBC24TKB cell growth in a cell viability assay.

[47] = system: NH-12; type: functional, cell-based;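 further: growth inhibition of NH-12 cells, read out with a cell viability assay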
Description: SANGER: Inhibition of human NH-12 cell growth in a cell viability assay.

[48] = system: LS-513; type: functional, cell-based
Description: SANGER: Inhibition of human LS-513 cell growth in a cell viability assay.

[49] = system: DU-4475; type: functional, cell-based
Description: SANGER: Inhibition of human DU-4475 cell growth in a cell viability assay.

[50] = system: KURAMOCHI; type: functional, cell-based;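 further: growth inhibition of KURAMOCHI cells, read out with a cell viability assay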
Description: SANGER: Inhibition of human KURAMOCHI cell growth in a cell viability assay.

[51] = system: SW684; type: functional, cell-based;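 further: growth inhibition of human SW684 cells, measured by a cell viability assay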
Description: SANGER: Inhibition of human SW684 cell growth in a cell viability assay.

[52] = system: MZ2-MEL; type: functional, cell-based;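 further: growth inhibition of MZ2-MEL cells read out with a cell viability assay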
Description: SANGER: Inhibition of human MZ2-MEL cell growth in a cell viability assay.

[53] = system: SF-539; type: functional, cell-based;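 further: Read-out is a cell viability assay, with IC50 reflecting inhibition of cell growth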
Description: SANGER: Inhibition of human SF539 cell growth in a cell viability assay.

[54] = system: ES3; type: functional, cell-based;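 further: growth inhibition of ES3 cells, read out with a cell viability assay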
Description: SANGER: Inhibition of human ES3 cell growth in a cell viability assay.

[55] = system: LB2241-RCC; type: functional, cell-based;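 further: cell viability assay measuring how strongly the cultured human renal carcinoma line is prevented from growing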
Description: SANGER: Inhibition of human LB2241-RCC cell growth in a cell viability assay.

[56] = system: LU-134-A; type: functional, cell-based
Description: SANGER: Inhibition of human LU-134-A cell growth in a cell viability assay.

[57] = system: SNU1; type: functional, cell-based;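 further: growth inhibition of human NCI-SNU-1 cells, measured with a cell viability assay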
Description: SANGER: Inhibition of human NCI-SNU-1 cell growth in a cell viability assay.

[58] = system: SK-N-FI; type: functional, cell-based;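 further: cell viability assay measuring growth inhibition of human SK-N-FI cells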
Description: SANGER: Inhibition of human SK-N-FI cell growth in a cell viability assay.

[59] = system: NB13; type: functional, cell-based;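 further: cell viability readout measuring growth inhibition of human NB13 cells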
Description: SANGER: Inhibition of human NB13 cell growth in a cell viability assay.

[60] = system: U-266; type: functional, cell-based
Description: SANGER: Inhibition of human U-266 cell growth in a cell viability assay.

[61] = system: NB69; type: functional, cell-based;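 further: growth inhibition of NB69 cells, determined by a cell viability assay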
Description: SANGER: Inhibition of human NB69 cell growth in a cell viability assay.

[62] = system: HCC2218; type: functional, cell-based
Description: SANGER: Inhibition of human HCC2218 cell growth in a cell viability assay.

[63] = system: KP-N-YS; type: functional, cell-based
Description: SANGER: Inhibition of human KP-N-YS cell growth in a cell viability assay.

[64] = system: SK-MEL-1; type: functional, cell-based
Description: SANGER: Inhibition of human SK-MEL-1 cell growth in a cell viability assay.

[65] = system: CP66-MEL; type: functional, cell-based
Description: SANGER: Inhibition of human CP66-MEL cell growth in a cell viability assay.

C/C=C(/C)C(=O)O[C@H]1C(C)=C2[C@H]([C@@H]1OC(=O)CCCCCCC)[C@@](C)(OC(C)=O)C[C@H](OC(=O)CCC)[C@@]1(O)[C@H]2OC(=O)[C@@]1(C)O [THAPSIGARGIN]
IC50 [1]: 0.000984 µM | IC50 [2]: 0.114 µM | IC50 [3]: 0.0257 µM | IC50 [4]: 0.138 µM | IC50 [5]: < 0.002 µM | IC50 [6]: 0.000855 µM | IC50 [7]: 0.011 µM | IC50 [8]: < 0.002 µM | IC50 [9]: 0.0361 µM | IC50 [10]: 0.0057 µM | IC50 [11]: 0.017 µM | IC50 [12]: > 0.512 µM | IC50 [13]: 0.032 µM | IC50 [14]: 0.00998 µM | IC50 [15]: 0.0641 µM | IC50 [16]: 0.000879 µM | IC50 [17]: < 0.002 µM | IC50 [18]: 0.0354 µM | IC50 [19]: 0.0575 µM | IC50 [20]: 0.0149 µM | IC50 [21]: 0.135 µM | IC50 [22]: 0.0336 µM | IC50 [23]: 0.0211 µM | IC50 [24]: 0.0156 µM | IC50 [25]: 0.343 µM | IC50 [26]: 0.00212 µM | IC50 [27]: 0.083 µM | IC50 [28]: 0.00508 µM | IC50 [29]: < 0.002 µM | IC50 [30]: 0.0336 µM | IC50 [31]: 0.000549 µM | IC50 [32]: > 0.512 µM | IC50 [33]: < 0.002 µM | IC50 [34]: 0.0395 µM | IC50 [35]: 0.355 µM | IC50 [36]: 0.0674 µM | IC50 [37]: 0.141 µM | IC50 [38]: 0.0163 µM | IC50 [39]: 0.215 µM | IC50 [40]: 0.0326 µM | IC50 [41]: > 0.512 µM | IC50 [42]: < 0.002 µM | IC50 [43]: 0.0126 µM | IC50 [44]: 0.00804 µM | IC50 [45]: 0.293 µM | IC50 [46]: < 0.002 µM | IC50 [47]: 0.024 µM | IC50 [48]: 0.154 µM | IC50 [49]: 0.00597 µM | IC50 [50]: 0.00544 µM | IC50 [51]: > 0.512 µM | IC50 [52]: 0.00179 µM | IC50 [53]: 0.00194 µM | IC50 [54]: 0.0041 µM | IC50 [55]: 0.066 µM | IC50 [56]: 0.0933 µM | IC50 [57]: 0.0136 µM | IC50 [58]: 0.0882 µM | IC50 [59]: 0.00945 µM | IC50 [60]: 0.00291 µM | IC50 [61]: 0.000873 µM | IC50 [62]: 0.0589 µM | IC50 [63]: 0.00806 µM | IC50 [64]: > 0.512 µM | IC50 [65]: 0.0036 µM

C[C@]1(c2nc3c(C(N)=O)cccc3[nH]2)CCCN1 [VELIPARIB]
IC50 [1]: > 5 µM | IC50 [2]: > 5 µM | IC50 [3]: > 5 µM | IC50 [4]: > 5 µM | IC50 [5]: > 5 µM | IC50 [6]: > 5 µM | IC50 [7]: > 5 µM | IC50 [8]: > 5 µM | IC50 [9]: > 5 µM | IC50 [10]: > 5 µM | IC50 [11]: > 5 µM | IC50 [12]: > 5 µM | IC50 [13]: > 5 µM | IC50 [14]: > 5 µM | IC50 [15]: > 5 µM | IC50 [16]: > 5 µM | IC50 [17]: > 5 µM | IC50 [18]: > 5 µM | IC50 [19]: > 5 µM | IC50 [20]: > 5 µM | IC50 [21]: > 5 µM | IC50 [22]: > 5 µM | IC50 [23]: > 5 µM | IC50 [24]: > 5 µM | IC50 [25]: > 5 µM | IC50 [26]: > 5 µM | IC50 [27]: > 5 µM | IC50 [28]: > 5 µM | IC50 [29]: > 5 µM | IC50 [30]: > 5 µM | IC50 [31]: > 5 µM | IC50 [32]: > 5 µM | IC50 [33]: > 5 µM | IC50 [34]: > 5 µM | IC50 [35]: > 5 µM | IC50 [36]: > 5 µM | IC50 [37]: > 5 µM | IC50 [38]: > 5 µM | IC50 [39]: > 5 µM | IC50 [40]: > 5 µM | IC50 [41]: > 5 µM | IC50 [42]: > 5 µM | IC50 [43]: > 5 µM | IC50 [44]: > 5 µM | IC50 [45]: > 5 µM | IC50 [46]: > 5 µM | IC50 [47]: > 5 µM | IC50 [48]: > 5 µM | IC50 [49]: > 5 µM | IC50 [50]: > 5 µM | IC50 [51]: > 5 µM | IC50 [52]: > 5 µM | IC50 [53]: > 5 µM | IC50 [54]: > 5 µM | IC50 [55]: > 5 µM | IC50 [56]: > 5 µM | IC50 [57]: > 5 µM | IC50 [58]: > 5 µM | IC50 [59]: > 5 µM | IC50 [60]: > 5 µM | IC50 [61]: > 5 µM | IC50 [62]: > 5 µM | IC50 [63]: > 5 µM | IC50 [64]: > 5 µM | IC50 [65]: > 5 µM
